According to patent publication US12612413B2, “Heteroaryl compounds as inhibitors of programmed necrosis pathway, composition and method using the same” (ACCRO BIOSCIENCE INC., priority 2020, dated 2026):

system: HT-29 cells; experiment: HT-29 cell viability (necroptosis) assay; format: cell-based; details: Homo sapiens, TNF-α (40 ng/mL), Smac mimetic (100 nM), z-VAD (20 μM), 40 h, from survival rate curve
Protocol: Human colon cancer HT-29 cells were used in a necroptosis assay. For this assay, HT-29 cells were added to 96-well plates. The compounds at different concentrations (0.3, 1.0, 3.0, 10.0, 20.0 μM) were then preprocessed for two hours. TNF-α (40 ng/mL), Smac mimetic (100 nM) and z-VAD (20 μM) were added, and the mixture was incubated for 40 h. Quantitative analysis of cell viability was conducted. DMSO pretreatment group was used as a negative control. Concentration for 50% of maximal effect was calculated according to the curve of the survival rate measured at different concentrations. FIG. 1 depicts the EC50 curves of compound A16.

Point of comparison: `CC1=Cc2cc3nccc(Nc4ccn5ccnc5c4)c3cc2S1(=O)=O` [Compound A67, 8-(imidazo[1,2-a]pyridin-7-ylamino)-2-methylthieno[2,3-g]quinoline 1,1-dioxide], EC50 5710 nM. Against it:
- O=S1(=O)C=Cc2cc3nccc(Nc4ccc5scnc5c4)c3cc21 [Compound A2] — 5.6-fold lower, 1020 nM
- CCC1=Cc2cc3nccc(Nc4ccc5scnc5c4)c3cc2S1(=O)=O [Compound A4] — 5.8-fold lower, 980 nM
- CC(C)C1=Cc2cc3nccc(Nc4ccc5scnc5c4)c3cc2S1(=O)=O [Compound A5] — 7.5-fold lower, 760 nM
- O=S1(=O)C(C2CC2)=Cc2cc3nccc(Nc4ccc5scnc5c4)c3cc21 [Compound A6] — 11-fold lower, 540 nM
- CC1=C(C)S(=O)(=O)c2cc3c(Nc4ccc5scnc5c4)ccnc3cc21 [Compound A8] — 11-fold lower, 530 nM
- CCC1=CS(=O)(=O)c2cc3c(Nc4ccc5scnc5c4)ccnc3cc21 [Compound A10] — 4.1-fold lower, 1380 nM
- COC1=CS(=O)(=O)c2cc3c(Nc4ccc5scnc5c4)ccnc3cc21 [Compound A12, 8-(benzo[d]thiazol-5-ylamino)-3-methoxythieno[2,3-g]quinoline 1,1-dioxide] — 5.5-fold lower, 1030 nM
- CC(C)OC1=Cc2cc3nccc(Nc4ccc5scnc5c4)c3cc2S1(=O)=O [Compound A15] — 11-fold lower, 500 nM
- O=S1(=O)C=C(OCCO)c2cc3nccc(Nc4ccc5scnc5c4)c3cc21 [Compound A16, 8-(benzo[d]thiazol-5-ylamino)-3-(2-hydroxyethoxy)thieno[2,3-g]quinoline 1,1-dioxide] — 4.4-fold lower, 1290 nM
- O=S1(=O)C=C(NCCO)c2cc3nccc(Nc4ccc5scnc5c4)c3cc21 [Compound A18] — 18-fold lower, 310 nM
- COC1=C(C)S(=O)(=O)c2cc3c(Nc4ccc5scnc5c4)ccnc3cc21 [Compound A19] — 29-fold lower, 200 nM
- COc1ccc(C2=CS(=O)(=O)c3cc4c(Nc5ccc6scnc6c5)ccnc4cc32)cc1 [Compound A23] — 5.5-fold lower, 1040 nM
- O=S1(=O)C=C(c2ccc(O)cc2)c2cc3nccc(Nc4ccc5scnc5c4)c3cc21 [Compound A24] — 11-fold lower, 500 nM
- N#Cc1ccc(C2=CS(=O)(=O)c3cc4c(Nc5ccc6scnc6c5)ccnc4cc32)cc1 [Compound A25] — 19-fold lower, 300 nM
- O=S1(=O)C=C(c2ccc(F)cc2)c2cc3nccc(Nc4ccc5scnc5c4)c3cc21 [Compound A26] — 10-fold lower, 570 nM
- O=S1(=O)C=C(c2cccnc2)c2cc3nccc(Nc4ccc5scnc5c4)c3cc21 [Compound A27] — 12-fold lower, 490 nM
- O=S1(=O)C=C(c2ccncc2)c2cc3nccc(Nc4ccc5scnc5c4)c3cc21 [Compound A28] — 5.7-fold lower, 1010 nM
- O=S1(=O)C=C(c2cn[nH]c2)c2cc3nccc(Nc4ccc5scnc5c4)c3cc21 [Compound A30] — 59-fold lower, 97 nM
- Cn1cc(C2=CS(=O)(=O)c3cc4c(Nc5ccc6scnc6c5)ccnc4cc32)cn1 [Compound A31] — 5.5-fold lower, 1030 nM
- Cc1cc(C2=CS(=O)(=O)c3cc4c(Nc5ccc6scnc6c5)ccnc4cc32)n(C)n1 [Compound A32] — 4.8-fold lower, 1200 nM
- CC1=Cc2cc3nccc(Nc4n[nH]c5ccc(F)cc45)c3cc2S1(=O)=O [Compound A36] — within 1.5-fold, 5790 nM
- CC1=Cc2cc3nccc(Nc4cc(O)ccc4F)c3cc2S1(=O)=O [Compound A52] — 22-fold lower, 260 nM
- CC1=Cc2cc3nccc(Nc4ccc(O)c(C#N)c4)c3cc2S1(=O)=O [Compound A58] — within 1.5-fold, 3950 nM
- CC1=CS(=O)(=O)c2cc3c(Nc4cc(O)c(F)cc4F)ccnc3cc21 [Compound A83] — 5.7-fold lower, 1000 nM

same assay, conditions: Homo sapiens, compound at 20 μM, TNF-α (40 ng/mL), Smac mimetic (100 nM), z-VAD (20 μM), 40 h, read-out: HT-29(20 μM) Survival

Point of comparison: `CC1=Cc2cc3nccc(Nc4cnc5snc(C)c5c4)c3cc2S1(=O)=O` [Compound A44], viability at 20 µM 20.1%. Against it:
- O=S1(=O)C=C(Br)c2cc3nccc(Nc4ccc5scnc5c4)c3cc21 [Compound A1, 8-(benzo[d]thiazol-5-ylamino)-3-bromothieno[2,3-g]quinoline 1,1-dioxide] — lower, 4.5%
- CC(C)C1=CS(=O)(=O)c2cc3c(Nc4ccc5scnc5c4)ccnc3cc21 [Compound A11] — higher, 34.5%
- Nc1cc(C2=CS(=O)(=O)c3cc4c(Nc5ccc6scnc6c5)ccnc4cc32)ccn1 [Compound A29] — lower, 1.1%
- O=S1(=O)C=C(n2ccnc2)c2cc3nccc(Nc4ccc5scnc5c4)c3cc21 [Compound A34] — lower, 15.5%
- CC1=Cc2cc3nccc(Nc4ccc5cn[nH]c5c4)c3cc2S1(=O)=O [Compound A35] — higher, 33%
- CC1=Cc2cc3nccc(Nc4n[nH]c(C)c4C)c3cc2S1(=O)=O [Compound A38] — higher, 37.6%
- CC1=Cc2cc3nccc(Nc4ccc5[nH]nnc5c4)c3cc2S1(=O)=O [Compound A39] — higher, 63.5%
- CC1=Cc2cc3nccc(Nc4ccc5nc[nH]c5c4)c3cc2S1(=O)=O [Compound A40] — lower, 5.8%
- CC1=Cc2cc3nccc(Nc4ccc5c(c4)CNCC5)c3cc2S1(=O)=O [Compound A41] — lower, 9.8%
- CC1=Cc2cc3nccc(Nc4ccc5c(c4)CN(C)CC5)c3cc2S1(=O)=O [Compound A42] — higher, 23.1%
- CC1=Cc2cc3nccc(Nc4ccc5c(c4)C(=O)NCC5)c3cc2S1(=O)=O [Compound A43] — higher, 48.8%
- CC1=Cc2cc3nccc(Nc4cnc5scnc5c4)c3cc2S1(=O)=O [Compound A45] — higher, 27.6%
- CC1=Cc2cc3nccc(Nc4cc(O)ccc4C)c3cc2S1(=O)=O [Compound A46] — lower, 13.1%
- COc1ccc(C)c(Nc2ccnc3cc4c(cc23)S(=O)(=O)C(C)=C4)c1 [Compound A47] — lower, 17.5%
- CC(=O)Nc1ccc(C)c(Nc2ccnc3cc4c(cc23)S(=O)(=O)C(C)=C4)c1 [Compound A48] — lower, 7.8%
- CC1=Cc2cc3nccc(Nc4cc(N)ccc4C)c3cc2S1(=O)=O [Compound A49] — higher, 60.3%
- CC1=Cc2cc3nccc(Nc4cc(CN)ccc4C)c3cc2S1(=O)=O [Compound A50, 8-((5-(aminomethyl)-2-methylphenyl)amino)-2-methylthieno[2,3-g]quinoline 1,1-dioxide] — lower, 17.9%
- CC1=Cc2cc3nccc(Nc4ccc(O)cc4C)c3cc2S1(=O)=O [Compound A51] — lower, 16.1%
- CC1=Cc2cc3nccc(Nc4ccc(O)c(F)c4)c3cc2S1(=O)=O [Compound A54] — higher, 31.9%
- CC1=Cc2cc3nccc(Nc4ccc(O)c(Cl)c4)c3cc2S1(=O)=O [Compound A55] — higher, 25.6%
- CC1=Cc2cc3nccc(Nc4ccc(O)c(Br)c4)c3cc2S1(=O)=O [Compound A56] — higher, 23.2%
- CC1=Cc2cc3nccc(Nc4ccc(O)c(C(F)(F)F)c4)c3cc2S1(=O)=O [Compound A57] — lower, 15.3%
- CC1=Cc2cc3nccc(Nc4cc(O)cc(F)c4)c3cc2S1(=O)=O [Compound A59] — higher, 27.9%
- CC1=Cc2cc3nccc(Nc4cc(O)cc(Br)c4)c3cc2S1(=O)=O [Compound A60] — lower, 13.9%
- CC1=Cc2cc3nccc(Nc4cc(O)cc(C#N)c4)c3cc2S1(=O)=O [Compound A61] — higher, 29.2%
- C#Cc1cc(O)cc(Nc2ccnc3cc4c(cc23)S(=O)(=O)C(C)=C4)c1 [Compound A62] — higher, 22.3%
- CC1=Cc2cc3nccc(Nc4cc(N)ncc4C)c3cc2S1(=O)=O [Compound A63] — higher, 48.8%
- CC1=Cc2cc3nccc(Nc4cncc(N)c4)c3cc2S1(=O)=O [Compound A64] — higher, 20.2%
- CC1=Cc2cc3nccc(Nc4ccnc(N)c4)c3cc2S1(=O)=O [Compound A65, 8-((2-aminopyridin-4-yl)amino)-2-methylthieno[2,3-g]quinoline 1,1-dioxide] — lower, 19.5%
- CC1=Cc2cc3nccc(Nc4ccc5ncnn5c4)c3cc2S1(=O)=O [Compound A68] — lower, 11.9%
- CC1=Cc2cc3nccc(Nc4ccn5ncnc5c4)c3cc2S1(=O)=O [Compound A69] — lower, 10.5%
- CC1=Cc2cc3nccc(Nc4cc(F)cc(F)n4)c3cc2S1(=O)=O [Compound A70] — lower, 16.5%
- CC1=Cc2cc3nccc(Nc4cc(N)cc(F)n4)c3cc2S1(=O)=O [Compound A71, 8-((4-amino-6-fluoropyridin-2-yl)amino)-2-methylthieno[2,3-g]quinoline 1,1-dioxide] — higher, 23.4%
- CC1=CS(=O)(=O)c2cc3c(Nc4ccc5cn[nH]c5c4)ccnc3cc21 [Compound A72] — higher, 40.7%
- CC1=CS(=O)(=O)c2cc3c(Nc4n[nH]c5ccc(F)cc45)ccnc3cc21 [Compound A73] — higher, 40.7%
- CC1=CS(=O)(=O)c2cc3c(Nc4n[nH]c(C)c4C)ccnc3cc21 [Compound A75] — higher, 32.3%
- CC1=CS(=O)(=O)c2cc3c(Nc4cc(O)ccc4C)ccnc3cc21 [Compound A76] — higher, 33.8%
- CC(=O)Nc1ccc(C)c(Nc2ccnc3cc4c(cc23)S(=O)(=O)C=C4C)c1 [Compound A77] — lower, 12.9%
- CC1=CS(=O)(=O)c2cc3c(Nc4cc(N)ccc4C)ccnc3cc21 [Compound A78] — lower, 10.5%
- CC1=CS(=O)(=O)c2cc3c(Nc4cc(O)ccc4F)ccnc3cc21 [Compound A79] — higher, 39.4%
- CC1=CS(=O)(=O)c2cc3c(Nc4ccc(O)cc4C)ccnc3cc21 [Compound A80] — lower, 14.4%
- CC1=CS(=O)(=O)c2cc3c(Nc4ccc(O)cc4F)ccnc3cc21 [Compound A81] — higher, 28.8%
- CC1=CS(=O)(=O)c2cc3c(Nc4cc(O)cc(C(F)(F)F)c4)ccnc3cc21 [Compound A82] — lower, 11%
- CC1=C(C)S(=O)(=O)c2cc3c(Nc4n[nH]c5ccc(F)cc45)ccnc3cc21 [Compound A84] — lower, 18.1%
- CC(=O)Nc1ccc(C)c(Nc2ccnc3cc4c(cc23)S(=O)(=O)C(C)=C4C)c1 [Compound A86] — higher, 20.5%
- CC1=C(C)S(=O)(=O)c2cc3c(Nc4cc(N)ccc4C)ccnc3cc21 [Compound A87] — lower, 15.5%
